Columns and labels:
[1] = system: TOV21G; assay: Cell proliferation (CyQUANT) TOV21G; format: cell-based; conditions: Homo sapiens, 168 h, 7 days, read-out: Anti-proliferation assay: IC50 (nM) [Cell Line: TOV21G]
Protocol: (§1) Cancer cell lines, namely, OVCAR3, TOV21G were seeded onto 96 well cell culture plates at a density of 2500, 1000 or 3000 cells/well, respectively and cultured overnight. Cells treated with test compounds at 3-fold dose titration for 7 days at maximum final DMSO concentration of 0.01%. The CyQUANT® Cell Proliferation Assay, a highly sensitive fluorescence-based method for quantifying cells and assessing cell proliferation and cytotoxicity was employed, following manufacturer's procedure (ThermnoFisher, Cataloge #C35012). Plates were scanned with a laser-based Acumen Cellistra instrument by TTP LabTech at Ex/Em 480/520 nm. % Inhibition is calculated based on DMSO control wells on the same plate (ie, DMSO wells have 100% growth and 0% growth inhibition).

[2] = target: CDK2/CycA2 (Homo sapiens, UniProt P24941); assay: In vitro kinase TR-FRET assay CDK2/CycA2; format: biochemical; conditions: enzyme 3 nM, ATP 27 μM, read-out: CDK2 cyclinA2 activity assay: IC50
Protocol: (§2) In vitro kinase TR-FRET assays: CDK2/CycA2, CDK2/CycE1, CDK1/cyclinB and GSK3β
(§3) The test compounds were prepared as 10 mM stock solution in 100% DMSO. The stock solution was then serially diluted 3-fold in 100% DMSO to 10 concentrations. 200 nL of each diluted compound solution was transferred to 384-well plate in duplicate. To each well, 5 uL of enzyme and ATP mixture solution containing enzyme CDK2/CycA2, CDK2/CycE1, CDK1/cyclinB, or GSK30 (final concentrations 3 nM, 0.6 nM, 0.3 nM, 0.6 nM, respectively) and ATP (final concentrations 27 μM, 82 μM, 56 μM, 7.6 μM, respectively) in the assay buffer (50 mM HEPES, pH7.5, 10 mM MgCl2, 1 mM DTT, 0.01% BSA, 0.01% Triton X-100). For negative control, 5 uL of assay buffer was added instead. The plate was incubated at room temperature for 10 min. 5 uL of peptide solution containing ULight-4E-BP1 peptide (final concentrations 50 nM) in the assay buffer was subsequently added into each well to initiate the reaction. By incubation at room temperature for 1 hour, 10 uL of 2 nM Eu-anti-phospho-4E BP1 antibody was then added for detection. After one hour incubation at room temperature, all samples were subjected to read the TR-FRET signal on Envision with excitation at 340 nm and emission fluorescence at 615 nm and 665 nm. IC50 values were then calculated by plotting dose-response curves and then using the XLfit application in Excel software.

[3] = target: CDK1/cyclinB (Homo sapiens, UniProt P06493); assay: In vitro kinase TR-FRET assay CDK1/cyclinB; format: biochemical; conditions: enzyme 0.3 nM, ATP 56 μM
Protocol: as §2, §3

[4] = target: GSK3β (Homo sapiens, UniProt P49841); assay: In vitro kinase TR-FRET assay GSK3β; format: biochemical; conditions: enzyme 0.6 nM, ATP 7.6 μM
Protocol: as §2, §3

[5] = target: CDK2/CycE1 (Homo sapiens, UniProt P24941); assay: In vitro kinase TR-FRET assay CDK2/CycE1; format: biochemical; conditions: enzyme 0.6 nM, ATP 82 μM, read-out: CDK2 cyclinE1 activity assay: IC50
Protocol: as §2, §3

[6] = system: OVCAR3; assay: Cell proliferation (CyQUANT) OVCAR3; format: cell-based; conditions: Homo sapiens, OVCAR-3, 168 h, OVCAR3, 7 days, read-out: Anti-proliferation assay: IC50 (nM) [Cell Line: OVCAR3]
Protocol: as §1

Sequence of CDK1/cyclinB (P06493 whole entry): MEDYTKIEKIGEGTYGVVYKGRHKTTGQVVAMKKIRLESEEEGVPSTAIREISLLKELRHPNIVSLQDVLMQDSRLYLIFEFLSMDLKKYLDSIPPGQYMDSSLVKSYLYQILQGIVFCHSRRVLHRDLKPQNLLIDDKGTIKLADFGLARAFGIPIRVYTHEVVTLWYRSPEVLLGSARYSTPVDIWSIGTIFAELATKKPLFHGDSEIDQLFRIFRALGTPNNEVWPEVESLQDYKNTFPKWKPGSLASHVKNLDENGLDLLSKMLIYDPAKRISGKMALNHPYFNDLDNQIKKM
Sequence of CDK1/cyclinB (P14635 whole entry partner): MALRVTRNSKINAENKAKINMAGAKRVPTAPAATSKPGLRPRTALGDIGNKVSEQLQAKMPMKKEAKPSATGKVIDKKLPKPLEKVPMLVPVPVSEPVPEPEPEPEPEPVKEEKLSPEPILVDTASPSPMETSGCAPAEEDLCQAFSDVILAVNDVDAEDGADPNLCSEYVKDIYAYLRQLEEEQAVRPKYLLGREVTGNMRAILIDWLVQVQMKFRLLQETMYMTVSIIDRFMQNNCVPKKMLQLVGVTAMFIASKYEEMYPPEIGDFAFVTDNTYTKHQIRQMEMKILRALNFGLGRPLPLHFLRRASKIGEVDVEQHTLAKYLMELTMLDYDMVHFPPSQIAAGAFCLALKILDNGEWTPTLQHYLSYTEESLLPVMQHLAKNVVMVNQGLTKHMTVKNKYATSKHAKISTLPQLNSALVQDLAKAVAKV
Sequence of GSK3β (P49841 whole entry, species assumed): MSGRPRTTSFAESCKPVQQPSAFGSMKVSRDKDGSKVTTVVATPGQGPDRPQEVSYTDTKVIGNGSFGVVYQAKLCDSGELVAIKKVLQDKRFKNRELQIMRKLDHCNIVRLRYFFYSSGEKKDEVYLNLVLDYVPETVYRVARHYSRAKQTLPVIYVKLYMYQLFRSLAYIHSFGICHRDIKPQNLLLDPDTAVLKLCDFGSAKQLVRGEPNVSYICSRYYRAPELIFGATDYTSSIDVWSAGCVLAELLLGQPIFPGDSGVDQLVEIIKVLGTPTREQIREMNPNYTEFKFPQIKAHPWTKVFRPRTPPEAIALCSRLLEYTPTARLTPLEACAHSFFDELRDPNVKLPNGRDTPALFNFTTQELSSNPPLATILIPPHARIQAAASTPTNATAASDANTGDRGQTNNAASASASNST

## CC(C)NC(=O)OC1CCC(c2cc(Nc3ccc4c(c3)CN(C)S4(=O)=O)[nH]n2)C1 (racemic) [Example 23, 3-(5-((2-methyl-1,1-dioxido-2,3-dihydrobenzo[d]isothiazol-5-yl)amino)-1H-pyrazol-3-yl)cyclopentyl isopropylcarbamate]
[1]
  IC50: ≥ 1000 nM
[2]
  IC50: < 50 nM
[3]
  IC50: 50 to 500 nM
[4]
  IC50: 50 to 500 nM
[5]
  IC50: < 50 nM
[6]
  IC50: ≤ 500 nM

## Cc1c([C@@H]2CC[C@H](OC(=O)NC(C)C)C2)n[nH]c1Nc1ccc2c(c1)CCS2(=O)=O (racemic) [Example 24, cis 3-{5-[(1,1-dioxo-2,3-dihydro-1λ6-benzothiophen-5-yl)amino]-4-methyl-1H-pyrazol-3-yl}cyclopentyl (prop-2-ylamino)methanoate]
[2]
  IC50: 500 to 1000 nM
[3]
  IC50: > 1000 nM
[4]
  IC50: > 1000 nM
[5]
  IC50: 50 to 500 nM

## CC(C)NC(=O)O[C@@H]1CC[C@H](c2cc(Nc3ccc4c(c3)C(=O)NC4=O)n[nH]2)C1 [Example 4, (1R,3S)-3-(3-((1,3-dioxoisoindolin-5-yl)amino)-1H-pyrazol-5-yl)cyclopentyl isopropylcarbamate]
[1]
  IC50: ≥ 1000 nM
[2]
  IC50: < 50 nM
[3]
  IC50: 50 to 500 nM
[4]
  IC50: 50 to 500 nM
[5]
  IC50: < 50 nM
[6]
  IC50: 500 to 1000 nM

## CC(C)NC(=O)O[C@@H]1CC[C@H](c2cc(Nc3ccc4c(c3)C(=O)NS4(=O)=O)[nH]n2)C1 [Example 5, (1R,3S)-3-(5-((1,1-dioxido-3-oxo-2,3-dihydrobenzo[d]isothiazol-5-yl)amino)-1H-pyrazol-3-yl)cyclopentyl isopropylcarbamate]
[1]
  IC50: ≥ 1000 nM
[2]
  IC50: < 50 nM
[3]
  IC50: > 1000 nM
[4]
  IC50: 500 to 1000 nM
[5]
  IC50: < 50 nM
[6]
  IC50: ≥ 1000 nM

## CC(C)NC(=O)O[C@@H]1CC[C@H](c2cc(Nc3ccc4c(c3)C(C)(C)NS4(=O)=O)n[nH]2)C1 [Example 13, (1R,3S)-3-(3-((3,3-dimethyl-1,1-dioxido-2,3-dihydrobenzo[d]isothiazol-5-yl)amino)-1H-pyrazol-5-yl)cyclopentyl isopropylcarbamate]
[2]
  IC50: < 50 nM
[3]
  IC50: 50 to 500 nM
[4]
  IC50: 50 to 500 nM
[5]
  IC50: < 50 nM

## CC(C)NC(=O)O[C@@H]1CC[C@H](c2[nH]nc(Nc3ccc4c(c3)CNS4(=O)=O)c2F)C1 [Example 14, (1R,3S)-3-(3-((1,1-dioxido-2,3-dihydrobenzo[d]isothiazol-5-yl)amino)-4-fluoro-1H-pyrazol-5-yl)cyclopentyl isopropylcarbamate]
[2]
  IC50: < 50 nM
[3]
  IC50: 50 to 500 nM
[4]
  IC50: > 1000 nM
[5]
  IC50: < 50 nM

## CC(C)NC(=O)O[C@@H]1CC[C@H](c2cc(Nc3ccc4c(c3)N(C)C(=O)NS4(=O)=O)n[nH]2)C1 [Example 18, (1R,3S)-3-(3-((4-methyl-1,1-dioxido-3-oxo-3,4-dihydro-2H-benzo[e][1,2,4]thiadiazin-6-yl)amino)-1H-pyrazol-5-yl)cyclopentyl isopropylcarbamate]
[2]
  IC50: < 50 nM
[3]
  IC50: 500 to 1000 nM
[4]
  IC50: 50 to 500 nM
[5]
  IC50: < 50 nM

## CC(C)NC(=O)O[C@@H]1CC[C@H](c2cc(Nc3ccc4c(c3)C(=O)NC4)n[nH]2)C1 [Example 20, (1R,3S)-3-{5-[(3-oxo-2,3-dihydro-1H-isoindol-5-yl)amino]-2H-pyrazol-3-yl}cyclopentyl (prop-2-ylamino)methanoate]
[2]
  IC50: < 50 nM
[3]
  IC50: 500 to 1000 nM
[4]
  IC50: > 1000 nM
[5]
  IC50: < 50 nM

## CC(C)NC(=O)O[C@@H]1CC[C@H](c2cc(Nc3cccc4c3S(=O)(=O)CC4)n[nH]2)C1 [Example 35, (1R,3S)-3-{5-[(1,1-dioxo-2,3-dihydro-1λ6-benzo[2,1-b]thiophen-7-yl)amino]-2H-pyrazol-3-yl}cyclopentyl (prop-2-ylamino)methanoate]
[2]
  IC50: > 1000 nM
[3]
  IC50: > 1000 nM
[4]
  IC50: > 1000 nM
[5]
  IC50: > 1000 nM

## CC(C)NC(=O)O[C@@H]1CC[C@H](c2cc(Nc3ccc4c(c3)S(=O)(=O)CCC4)n[nH]2)C1 [Example 39, (1R,3S)-3-(3-((1,1-dioxidothiochroman-7-yl)amino)-1H-pyrazol-5-yl)cyclopentyl isopropylcarbamate]
[2]
  IC50: < 50 nM
[3]
  IC50: 50 to 500 nM
[4]
  IC50: 50 to 500 nM
[5]
  IC50: < 50 nM

## Cc1c(Nc2ccc3c(c2)CS(=O)(=O)C3)n[nH]c1[C@H]1CC[C@@H](OC(=O)NC(C)C)C1 [Example 43, (1R,3S)-3-{5-[(2,2-dioxo-1,3-dihydro-2λ^6-benzo[c]thiophen-5-yl)amino]-4-methyl-2H-pyrazol-3-yl}cyclopentyl (prop-2-ylamino)methanoate]
[2]
  IC50: 50 to 500 nM
[3]
  IC50: > 1000 nM
[4]
  IC50: > 1000 nM
[5]
  IC50: 50 to 500 nM

## Cc1c(Nc2ccc3c(c2)CS(=O)(=O)C3)n[nH]c1[C@H]1CC[C@@H](OC(=O)NC(C)(C)C)C1 [Example 44, (1R,3S)-3-{5-[(2,2-dioxo-1,3-dihydro-2%6-benzo[c]thiophen-5-yl)amino]-4-methyl-2H-pyrazol-3-yl}cyclopentyl [(2-methylprop-2-yl)amino]methanoate]
[2]
  IC50: 50 to 500 nM
[3]
  IC50: > 1000 nM
[4]
  IC50: > 1000 nM
[5]
  IC50: 50 to 500 nM

## CC(C)NC(=O)O[C@@H]1CC[C@H](c2cc(Nc3cccc4c3CS(=O)(=O)N4)n[nH]2)C1 [Example 48, (1R,3S)-3-(3-((2,2-dioxido-1,3-dihydrobenzo[c]isothiazol-4-yl)amino)-1H-pyrazol-5-yl)cyclopentyl isopropylcarbamate]
[2]
  IC50: 50 to 500 nM
[3]
  IC50: > 1000 nM
[4]
  IC50: > 1000 nM
[5]
  IC50: 50 to 500 nM

## CC(C)NC(=O)O[C@@H]1CC[C@H](c2cc(Nc3cccc4c3N(C)S(=O)(=O)C4)n[nH]2)C1 [Example 51, (1R,3S)-3-{5-[(1-methyl-2,2-dioxo-1,3-dihydro-2λ^6-benzo[2,1-c][1,2]thiazol-7-yl)amino]-2H-pyrazol-3-yl}cyclopentyl (prop-2-ylamino)methanoate]
[2]
  IC50: 500 to 1000 nM
[3]
  IC50: 50 to 500 nM
[4]
  IC50: > 1000 nM
[5]
  IC50: 50 to 500 nM

## CC(C)NC(=O)O[C@@H]1CC[C@H](c2cc(Nc3c(F)ccc4c3CCS4(=O)=O)n[nH]2)C1 [Example 52, (1R,3S)-3-(3-((5-fluoro-1,1-dioxido-2,3-dihydrobenzo[b]thiophen-4-yl)amino)-1H-pyrazol-5-yl)cyclopentyl isopropylcarbamate]
[2]
  IC50: 50 to 500 nM
[3]
  IC50: > 1000 nM
[4]
  IC50: > 1000 nM
[5]
  IC50: < 50 nM

## CC(C)NC(=O)O[C@@H]1CC[C@H](c2cc(Nc3cccc4c3CCS(=O)(=O)N4)n[nH]2)C1 [Example 53, (1R,3S)-3-(3-((2,2-dioxido-3,4-dihydro-1H-benzo[c][1,2]thiazin-5-yl)amino)-1H-pyrazol-5-yl)cyclopentyl isopropylcarbamate]
[2]
  IC50: < 50 nM
[3]
  IC50: 500 to 1000 nM
[4]
  IC50: > 1000 nM
[5]
  IC50: < 50 nM

## CC(C)NC(=O)O[C@@H]1CC[C@H](c2cc(Nc3cc4c(cc3F)S(=O)(=O)CC4)n[nH]2)C1 [Example 54, (1R,3S)-3-(3-((6-fluoro-1,1-dioxido-2,3-dihydrobenzo[b]thiophen-5-yl)amino)-1H-pyrazol-5-yl)cyclopentyl isopropylcarbamate]
[2]
  IC50: < 50 nM
[3]
  IC50: > 1000 nM
[4]
  IC50: > 1000 nM
[5]
  IC50: < 50 nM

## O=C(NC1CC1)O[C@@H]1CC[C@H](c2cc(Nc3nccc4c3CCS4(=O)=O)n[nH]2)C1 [Example 71, (1R,3S)-3-{5-[(1,1-dioxo-2,3-dihydro-1λ^6-thieno[3,2-c]pyridin-4-yl)amino]-2H-pyrazol-3-yl}cyclopentyl (cyclopropylamino)methanoate]
[2]
  IC50: < 50 nM
[3]
  IC50: 50 to 500 nM
[4]
  IC50: 50 to 500 nM
[5]
  IC50: < 50 nM

## CC(C)NC(=O)O[C@@H]1CC[C@H](c2cc(Nc3cc4c(cn3)CCS4(=O)=O)n[nH]2)C1 [Example 72, (1R,3S)-3-{5-[(1,1-dioxo-2,3-dihydro-1λ^6-thieno[3,2-c]pyridin-6-yl)amino]-1H-pyrazol-3-yl}cyclopentyl (prop-2-ylamino)methanoate]
[2]
  IC50: < 50 nM
[3]
  IC50: < 50 nM
[4]
  IC50: > 1000 nM
[5]
  IC50: < 50 nM
